Assay results taken from publication PMC11200585, “Prospects for Prostate Cancer Chemotherapy: Cytotoxic Evaluation and Mechanistic Insights of Quinolinequinones with ADME/PK Profile” (Biomedicines, 2024).

Assays:
Format in all cases: cell-based, human
SK-OV-3 = experiment: NCI-60 five-dose assay (ovarian cancer); settings: 48 h, SRB
HT29 = experiment: NCI-60 five-dose assay (colon cancer); settings: SRB
SW-620 = experiment: NCI-60 five-dose assay (colon cancer); settings: 48 h, SRB
M14 = experiment: NCI-60 five-dose assay (melanoma); settings: 48 h, SRB
U251 = experiment: NCI-60 five-dose assay (CNS cancer); settings: SRB
SK-MEL-5 = experiment: NCI-60 five-dose assay (melanoma); settings: 48 h, SRB
TK-10 = experiment: NCI-60 five-dose assay (renal cancer); settings: 48 h, SRB
MCF7 = experiment: NCI-60 five-dose assay (breast cancer); settings: 48 h, SRB
HOP-92 [1] = experiment: NCI-60 five-dose assay (non-small cell lung cancer); settings: 48 h, SRB
SN12C = experiment: NCI-60 five-dose assay (renal cancer); settings: 48 h, SRB
HCT-15 = experiment: NCI-60 five-dose assay (colon cancer); settings: 48 h, SRB
HOP-62 [2] = experiment: NCI-60 five-dose assay (non-small cell lung cancer); settings: 48 h, SRB
NCI-H460 [3] = experiment: NCI-60 one-dose screen (non-small cell lung cancer); settings: 10 µM single dose
Method: (§1) The obtained quinolinequinones were submitted to NCI, Bethesda, USA, and, as per standard protocol of NCI, all compounds were evaluated for their antiproliferative activity at single-dose assay (10 µM concentration in DMSO) on a panel of 60 cancer cell lines derived from leukemia, non-small-cell lung, colon, CNS, melanoma, ovarian, renal, prostate, and breast, as per protocol. Tested compounds were added to the microtiter culture plates followed by incubation for 48 h at 37 °C. Sulforhodamine B (SRB), a protein-binding dye, is used for endpoint determination. The percent of the growth of the treated cells was determined in comparison to the untreated control cells and the results of each tested compound were reported. Data from one-dose experiments pertain to the percentage growth at 10 μM [16, 17, 18].

NCI-H522 [4] = experiment: as above; settings: 10 µM single dose, 48 h
Method: as §1

NCI-H226 = experiment: as above; settings: 10 µM single dose
Method: as §1

HOP-92 [5] = experiment: as above; settings: 10 µM single dose, 48 h
Method: as §1

NCI-H322M = experiment: as above; settings: 10 µM single dose
Method: as §1

EKVX [6] = experiment: as above; settings: 10 µM single dose, 48 h
Method: as §1

NCI-H23 [7] = experiment: as above; settings: 10 µM single dose, 48 h
Method: as §1

HOP-62 [8] = experiment: as above; settings: 10 µM single dose, 48 h
Method: as §1

A549/ATCC = experiment: as above; settings: 10 µM single dose, 48 h
Method: as §1

NCI-H23 [9] = experiment: NCI-60 five-dose assay (non-small cell lung cancer); settings: 48 h, SRB
SF-539 = experiment: NCI-60 five-dose assay (CNS cancer); settings: 48 h, SRB
HCC-2998 = experiment: NCI-60 five-dose assay (colon cancer); settings: 48 h, SRB
UO-31 = experiment: NCI-60 five-dose assay (renal cancer); settings: 48 h, SRB
NCI-H460 [10] = experiment: NCI-60 five-dose assay (non-small cell lung cancer); settings: 48 h, SRB
SF-268 = experiment: NCI-60 five-dose assay (CNS cancer); settings: 48 h, SRB
SNB-75 = experiment: NCI-60 five-dose assay (CNS cancer); settings: 48 h, SRB
MDA-MB-231/ATCC = experiment: NCI-60 five-dose assay (breast cancer); settings: 48 h, SRB
T-47D = experiment: NCI-60 five-dose assay (breast cancer); settings: 48 h, SRB
EKVX [11] = experiment: NCI-60 five-dose assay (non-small cell lung cancer); settings: 48 h, SRB
NCI-H522 [12] = experiment: as above; settings: 48 h, SRB
UACC-62 = experiment: NCI-60 five-dose assay (melanoma); settings: 48 h, SRB
786-0 = experiment: NCI-60 five-dose assay (renal cancer); settings: 48 h, SRB
[13] = Homo sapiens, read-out: LC50 (the source's name)

Question: What does the source list for `CCOc1ccccc1NC1=C(Cl)C(=O)c2nc(C)ccc2C1=O` [AQQ2]?
Answer: TGI (SK-OV-3): 27.1 µM; GI50 (SK-OV-3; Homo sapiens): 13.5 µM; LC50 (50% net cell kill) (SK-OV-3; Homo sapiens): 54.2 µM; TGI (HT29; 48 h): 15.2 µM; GI50 (HT29; Homo sapiens, HT-29, 48 h): 3.4 µM; LC50 (concentration killing 50% of cells) (HT29; Homo sapiens, HT-29, 48 h): 99.5 µM; TGI (SW-620): 3.21 µM; GI50 (SW-620; Homo sapiens): 1.6 µM; LC50 (SW-620; Homo sapiens): 6.41 µM; TGI (M14): 2.83 µM; GI50 (M14; Homo sapiens): 1.46 µM; LC50 (M14; Homo sapiens): 5.5 µM; TGI (U251; 48 h): 3.27 µM; GI50 (U251; Homo sapiens, U-251, 48 h): 1.7 µM; LC50 (concentration killing 50% of cells) (U251; Homo sapiens, U-251, 48 h): 6.28 µM; TGI (SK-MEL-5): 3.13 µM; GI50 (SK-MEL-5; Homo sapiens): 1.74 µM; CC50 (SK-MEL-5; [13]): 5.65 µM; TGI (TK-10): 3.72 µM; GI50 (TK-10; Homo sapiens): 2.25 µM; LC50 (concentration killing 50% of starting cells) (TK-10; Homo sapiens): 6.18 µM; TGI (MCF7): 3.65 µM; GI50 (MCF7; Homo sapiens): 1.33 µM; TGI (HOP-92 [1]): 3.33 µM; GI50 (HOP-92 [1]; Homo sapiens): 1.8 µM; LC50 (50% lethal concentration) (HOP-92 [1]; Homo sapiens): 6.13 µM; TGI (SN12C): 3.04 µM; GI50 (SN12C; Homo sapiens): 1.59 µM; LC50 (concentration killing 50% of starting cells) (SN12C; Homo sapiens): 5.8 µM; TGI (HCT-15): 2.55 µM; GI50 (HCT-15; Homo sapiens): 1.13 µM; CC50 (HCT-15; [13]): 5.76 µM; TGI (HOP-62 [2]): 6.74 µM; GI50 (HOP-62 [2]; Homo sapiens): 2.27 µM; LC50 (concentration killing 50% of cells) (HOP-62 [2]; Homo sapiens): 28.8 µM; GP (growth percentage) (NCI-H460 [3]; 48 h): 12.07%; inhibition at 10 µM (NCI-H460 [3]; Homo sapiens): 87.9%; GP (growth percentage) (NCI-H522 [4]): −43.48%; GP (growth percentage) (NCI-H226; 48 h): 17.62%; inhibition at 10 µM (NCI-H226; Homo sapiens): 82.4%; GP (growth percentage) (HOP-92 [5]): −89.25%; GP (growth percentage) (NCI-H322M; 48 h): 28.84%; inhibition at 10 µM (NCI-H322M; Homo sapiens): 71.2%; GP (growth percentage) (EKVX [6]): −2.24%; GP (growth percentage) (NCI-H23 [7]): −67.81%; GP (growth percentage) (HOP-62 [8]): 84.25%; GP (growth percentage) (A549/ATCC): 59.11%; TGI (NCI-H23 [9]): 3.55 µM; GI50 (NCI-H23 [9]; Homo sapiens): 1.44 µM; CC50 (NCI-H23 [9]; [13]): 8.71 µM; TGI (SF-539): 3.09 µM; GI50 (SF-539; Homo sapiens): 1.67 µM; LC50 (SF-539; Homo sapiens): 5.71 µM; TGI (HCC-2998): 3.52 µM; GI50 (HCC-2998; Homo sapiens): 1.94 µM; LC50 (concentration killing 50% of cells) (HCC-2998; Homo sapiens): 6.39 µM; TGI (UO-31): 2.71 µM; GI50 (UO-31; Homo sapiens): 1.4 µM; LC50 (lethal concentration 50%) (UO-31; Homo sapiens): 5.23 µM; TGI (NCI-H460 [10]): 11.4 µM; GI50 (NCI-H460 [10]; Homo sapiens): 3.02 µM; CC50 (NCI-H460 [10]; [13]): 45.4 µM; TGI (SF-268): 2.94 µM; GI50 (SF-268; Homo sapiens): 1.47 µM; LC50 (concentration killing 50% of cells) (SF-268; Homo sapiens): 5.87 µM; TGI (SNB-75): 3.43 µM; GI50 (SNB-75; Homo sapiens): 1.63 µM; LC50 (50% lethal concentration) (SNB-75; Homo sapiens): 7.21 µM; TGI (MDA-MB-231/ATCC): 2.38 µM; GI50 (MDA-MB-231/ATCC; Homo sapiens): 1.07 µM; LC50 (concentration killing 50% of cells) (MDA-MB-231/ATCC; Homo sapiens): 5.31 µM; TGI (T-47D): 3.17 µM; GI50 (T-47D; Homo sapiens, T47D): 0.467 µM; CC50 (T-47D; Homo sapiens, T47D, read-out: LC50 (the source's name)): > 100 µM; TGI (EKVX [11]): 2.98 µM; GI50 (EKVX [11]; Homo sapiens): 1.56 µM; CC50 (EKVX [11]; [13]): 5.7 µM; TGI (NCI-H522 [12]): 3.28 µM; GI50 (NCI-H522 [12]; Homo sapiens): 1.74 µM; LC50 (NCI-H522 [12]; Homo sapiens): 6.18 µM; TGI (UACC-62): 3.36 µM; GI50 (UACC-62; Homo sapiens): 1.8 µM; LC50 (concentration killing 50% of cells) (UACC-62; Homo sapiens): 6.28 µM; TGI (786-0): 3.25 µM; GI50 (786-0; Homo sapiens): 1.8 µM; LC50 (786-0; Homo sapiens): 5.86 µM
